Source: patent publication US11377501B2, “Peptide having high affinity for PD-L1 protein and use thereof” (priority 2017, dated 2022)
“Also recorded” adds a separate entry of the source. Where no end group is shown, it is not given here.

Assays:
mouse tumor = experiment: Effect of PPLC peptide on tumor volume and survival in mouse tumor model; type: in vivo; settings: subcutaneous tumors in female Balb/c mice
Method: (§1) The experimental animals were divided into two groups: PBS group and PPLC group. Tumors were injected subcutaneously into 6 weeks old female Balb/c mice. Two weeks later, when the tumor size reached 100 mm^3, PPLC drug treatment was performed. The size of the mouse tumor was measured daily and the change was recorded.
as §1, with “into” for “into 6 weeks old”

[1] = molecular target: T1, recombinant human PD-L1 protein expressed on CHO cell surface (Homo sapiens, UniProt Q9NZQ7); experiment: Binding of FITC-labeled PPLC peptide to PD-L1 expressed on CHO cell surface (flow cytometry, fluorescence confocal); type: cell-based; settings: CHO cells transfected with human PD-L1, FITC-labeled peptide, flow cytometry and confocal
T1 construct: expressed in transfected cells; host or cells: CHO cell line
Method: (§2) The recombinant plasmid expressing recombinant human PD-L1 protein was transfected into CHO cell line and incubated for 36 hours. After incubation, anti-PD-L1 monoclonal antibody or PPLC peptide labeled with FITC was added and incubated at 4° C. for 30 minutes. After incubation, flow cytometry was performed (FIG. 3). After transfection of the plasmid, the cells were further cultured for 36 hours, and then the PPLC peptide labeled with FITC was added and incubated at 37° C. for 30 minutes. After incubation, fluorescence confocal detection was performed (FIG. 4).
as §2, with “added,” for “added”, “performed.” for “performed (FIG. 3).”, “performed.” for “performed (FIG. 4).”

PD-1/PD-L1 = PD-1/PD-L1 (Homo sapiens, UniProt Q9NZQ7); experiment: Competitive binding ELISA between PPLC peptide and PD-1 to PD-L1 protein; settings: 2 μg/ml coated PD-L1, 1 μg/ml PD-1 protein
Method: (§3) A 96-well ELISA plate was coated with 2 μg/ml PD-L1 protein at 4° C. overnight. Different concentrations of PPLC peptide and 1 μg/ml PD-1 protein were mixed and incubated together. After incubation, rabbit anti-human PD-1 monoclonal antibody was added as primary antibody, and then HRP-conjugated goat anti-rabbit IgG monoclonal antibody was added as secondary antibody. After ABTS color development, the OD value at 410 nm was measured using a M5 microplate reader, and GraphPad Prism 6 was used for plotting and analysis.
as §3, with “1 μg/ml of PD-1 protein” for “1 μg/ml PD-1 protein”

T1 sequence (Q9NZQ7 19-290): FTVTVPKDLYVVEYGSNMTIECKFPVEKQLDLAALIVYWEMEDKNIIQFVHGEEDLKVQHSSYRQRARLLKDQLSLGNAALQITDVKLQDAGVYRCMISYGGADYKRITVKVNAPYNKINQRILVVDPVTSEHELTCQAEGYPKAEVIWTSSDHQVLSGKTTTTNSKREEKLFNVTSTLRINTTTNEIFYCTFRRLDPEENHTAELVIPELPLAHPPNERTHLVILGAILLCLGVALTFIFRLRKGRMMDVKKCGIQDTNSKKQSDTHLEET
PD-1/PD-L1, sequence (Q9NZQ7 19-238 limits assumed): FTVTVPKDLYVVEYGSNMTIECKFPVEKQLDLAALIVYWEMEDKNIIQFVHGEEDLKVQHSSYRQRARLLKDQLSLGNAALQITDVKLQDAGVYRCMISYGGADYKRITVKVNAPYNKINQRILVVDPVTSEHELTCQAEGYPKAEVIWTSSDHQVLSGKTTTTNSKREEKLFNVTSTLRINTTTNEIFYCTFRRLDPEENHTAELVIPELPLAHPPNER

In the case of VSVSHFQKVWVV [PPLC], the “growth rate of mouse tumor / tumor size” value (mouse tumor; treatment from tumor size 100 mm^3, versus PBS group) is reported as “can significantly reduce the growth rate of mouse tumor; also recorded: significantly smaller than that of the control group”, the “survival time of mice” value (mouse tumor; versus PBS group) is reported as “prolong the survival time of mice” and the “binding to PD-L1 protein expressed on the cell surface” value [1] is reported as “can efficiently bind to the PD-L1 protein expressed on the cell surface; also recorded: has a high affinity for PD-L1 expressed on the surface of CHO cells”. The “blocking of the binding of PD-1/PD-L1” value (PD-1/PD-L1) was “can effectively block the binding of PD-1/PD-L1”.
